Structure (SMILES)	glass transition temperature
*C(=O)OCCN(CCOC(=O)c1ccc2c(c1)C(=O)N(c1cccc(N3C(=O)c4ccc(*)cc4C3=O)c1)C2=O)c1ccc(/N=N/c2ccc(F)cc2)cc1 (repeat unit)	168.00 °C
*C(=O)OCCOC(=O)c1ccc(*)o1 (repeat unit)	89.0 °C
*CC#CC#CCOc1ccc(C(=O)OCCN(CCOC(=O)c2ccc(O*)cc2)c2ccc([N+](=O)[O-])cc2)cc1 (repeat unit)	100.00 °C
*CCCCCCOC(=O)C(CCCCCP(=O)(O)O)C(=O)OCCCCCCOc1ccc(-n2on2-c2ccc(O*)cc2)cc1 (repeat unit)	17.00 °C
*CCCCCCOC(=O)O* (repeat unit)	-42.00 °C
*CCCCCCOc1ccc(/C=C/c2ccc(O*)c3ccccc23)cc1 (repeat unit)	78.00 °C
*CCCCOC(=O)c1ccc(N/C=N/c2ccc(C(=O)O*)cc2)cc1 (repeat unit)	91.00 °C
*CCCOC(=O)C(C)O* (repeat unit)	-33.00 °C
*CCCOc1ccc(OCCCc2nnc(-c3ccc(-c4nnc(*)o4)cc3)o2)c(C)c1 (repeat unit)	112.00 °C
*CCN(CCOC(=O)OCc1ccc(COC(=O)O*)cc1)c1ccc(/N=N/c2ccc([N+](=O)[O-])cc2)cc1 (repeat unit)	138.80 °C
*CCN(CCOC(=O)c1cc(OCCC2CCN(c3ccc(S(=O)(=O)C(F)(F)C(F)(F)C(F)(F)C(F)(F)C(F)(F)C(F)(F)C(F)(F)C(F)(F)F)cc3)CC2)cc(C(=O)O*)c1)c1ccc(S(=O)(=O)C(F)(F)C(F)(F)C(F)(F)C(F)(F)C(F)(F)C(F)(F)C(F)(F)C(F)(F)F)cc1 (repeat unit)	86.00 °C
*CCN(CCOC(=O)c1ccc(C(=O)O*)cc1)c1ccc(-c2nc3ccc([N+](=O)[O-])cc3o2)cc1 (repeat unit)	208.00 °C
*CCOC(=O)c1ccc(O*)cc1 (repeat unit)	84.00 °C
*CCOCCOC(=O)O* (repeat unit)	-27.00 °C
*CCOCCOC(=O)c1ccccc1-c1ccccc1C(=O)O* (repeat unit)	17.00 °C
*CCOCCOCCOC(=O)c1ccc(-c2ccc(-c3ccc(C(=O)O*)cc3)cc2)cc1 (repeat unit)	50.00 °C

Structure (SMILES)	glass transition temperature
*CCOCCOCCOC(=O)c1ccc(-c2ccc(C(=O)O*)cc2)cc1 (repeat unit)	20.00 °C
*CCOCCOCCOCCOC(=O)c1ccc(-c2ccc(-c3ccc(C(=O)O*)cc3)cc2)cc1 (repeat unit)	40.00 °C
*CCOCCOc1ccc(N/C=N/c2ccc(O*)cc2)cc1 (repeat unit)	62.00 °C
*CCOc1ccc(/C=C2\CC/C(=C\c3ccc(OCCOP(=O)(O*)OCC)c(OC)c3)C2=O)cc1OC (repeat unit)	80.00 °C
*CCOc1ccc(C2(c3ccc(OCCO[Si](O*)(c4ccccc4)c4ccccc4)cc3)c3ccccc3-c3ccccc32)cc1 (repeat unit)	97.00 °C
*OC(=O)OCCOCCOCCOC(=O)OC1COC2C(*)COC12 (repeat unit)	17.00 °C
*OCCOC(=O)c1ccc(C(=O)OCCOc2nc(-c3ccc(OCCCC)cc3)nc(*)c2-c2ccc(OC)cc2)cc1 (repeat unit)	94.00 °C
*OCCOC(=O)c1cccc(C(=O)OCCOc2nc(-c3ccc(OCCCC)cc3)nc(*)c2-c2ccc(OC)cc2)c1 (repeat unit)	92.00 °C
*Oc1ccc(-c2ccc(Oc3ccc(C(=O)c4ccc(C(=O)c5ccc(*)c(C(F)(F)F)c5)cc4)cc3C(F)(F)F)cc2)cc1 (repeat unit)	187.00 °C
*Oc1cccc(N(c2ccccc2)c2ccc(-c3ccc(N(c4ccc(/N=N/c5ccc([N+](=O)[O-])cc5)cc4)c4cccc(OC(=O)OCCOCCOC(*)=O)c4)cc3)cc2)c1 (repeat unit)	111.00 °C
*Oc1cccc(N(c2ccccc2)c2ccc(-c3ccc(N(c4ccccc4)c4cccc(OC(=O)OCCOCCOC(*)=O)c4)cc3)cc2)c1 (repeat unit)	113.00 °C
*c1ccc(Oc2ccc(C(=O)c3ccc(Cc4ccc(C(=O)c5ccc(Oc6ccc(-c7nc(-c8ccccc8)[nH]c7*)cc6)cc5)cc4)cc3)cc2)cc1 (repeat unit)	231.00 °C
*c1ccc(Oc2ccc(C(=O)c3ccc(Oc4ccc(-c5cc(*)n(-c6ccccc6)n5)cc4)cc3)cc2)cc1 (repeat unit)	205.00 °C
*c1ccc(Oc2ccc(C(=O)c3ccc(Oc4ccc(-c5nc(-c6ccc(-c7nc(*)c(-c8ccccc8)[nH]7)cc6)[nH]c5-c5ccccc5)cc4)cc3)cc2)cc1 (repeat unit)	276.00 °C
*c1ccc(Oc2ccc(C(=O)c3ccc(Oc4ccc(-c5nnc(*)c6c(-c7ccc(F)cc7)c(-c7ccc(F)cc7)c(-c7ccc(F)cc7)c(-c7ccc(F)cc7)c56)cc4)cc3)cc2)cc1 (repeat unit)	313.00 °C
*c1ccc(Oc2ccc(C(=O)c3ccc(Oc4ccc(C(=O)c5ccc(Oc6ccc(-c7nc(-c8ccccc8)[nH]c7*)cc6)cc5)cc4)cc3)cc2)cc1 (repeat unit)	230.00 °C

Continued, values first:

glass transition temperature	Structure (SMILES)
77.00 °C	*C(=O)OCCCCCCCOC(=O)c1ccc(N2C(=O)c3ccc(*)cc3C2=O)cc1 (repeat unit)
80.50 °C	*C(=O)OCCCCCCOC(=O)c1ccc(N2C(=O)c3ccc(*)cc3C2=O)cc1 (repeat unit)
90.00 °C	*C(=O)OCCCCCOC(=O)c1ccc(N2C(=O)c3ccc(*)cc3C2=O)cc1 (repeat unit)
280.00 °C	*C(=O)OCCOC(=O)c1ccc(N2C(=O)c3ccc(*)cc3C2=O)cc1 (repeat unit)
101.00 °C	*C(=O)OCCOCCOC(=O)c1ccc(N2C(=O)c3ccc(*)cc3C2=O)cc1 (repeat unit)
63.00 °C	*C(=O)OCCOCCOCCOC(=O)c1ccc(N2C(=O)c3ccc(*)cc3C2=O)cc1 (repeat unit)
52.50 °C	*CCCCCCCOC(=O)c1ccc2cc(C(=O)O*)ccc2c1 (repeat unit)
23.00 °C	*CCCCCCOC(=O)C(C(=O)OCCCCCCOc1ccc(-n2on2-c2ccc(O*)cc2)cc1)c1ccccc1 (repeat unit)
53.60 °C	*CCCCCCOC(=O)C(CCCCCOc1ccc(/N=N/c2ccncc2)cc1)C(=O)OCCCCCCOc1ccc(-c2ccc(O*)cc2)cc1 (repeat unit)
71.00 °C	*CCCCCCOC(=O)OCCCCCCN1C(=O)c2ccc(-c3ccc4c(c3)C(=O)N(*)C4=O)cc2C1=O (repeat unit)
76.00 °C	*CCCCCCOC(=O)OCCCCCCN1C(=O)c2ccc(C(=O)c3ccc4c(c3)C(=O)N(*)C4=O)cc2C1=O (repeat unit)
-0.30 °C	*CCCCCCOC(=O)OCCCCCCOC(=O)OCCCCCCOc1ccc(C(=O)c2ccc(O*)cc2)cc1 (repeat unit)
17.00 °C	*CCCCCCOC(=O)OCCCCCCOC(=O)OCCCCCCn1c(=O)c2cc3c(=O)n(*)c(=O)c3cc2c1=O (repeat unit)
2.10 °C	*CCCCCCOC(=O)OCCCCOC(=O)OCCCCCCOc1ccc(C(=O)c2ccc(O*)cc2)cc1 (repeat unit)
61.00 °C	*CCCCCCOC(=O)OCCCOC(=O)OCCCCCCN1C(=O)c2ccc(C(=O)c3ccc4c(c3)C(=O)N(*)C4=O)cc2C1=O (repeat unit)
16.00 °C	*CCCCCCOC(=O)OCCCOC(=O)OCCCCCCOc1ccc(C(=O)c2ccc(O*)cc2)cc1 (repeat unit)
15.00 °C	*CCCCCCOC(=O)OCCOC(=O)OCCCCCCOc1ccc(C(=O)c2ccc(O*)cc2)cc1 (repeat unit)
-4.00 °C	*CCCCCCOC(=O)OCCOC(=O)OCCCCCCOc1ccc(Oc2ccc(O*)cc2)cc1 (repeat unit)

glass transition temperature	Structure (SMILES)
51.00 °C	*CCCCCCOC(=O)c1ccc(-c2ccc(C(=O)O*)cc2)cc1 (repeat unit)
64.00 °C	*CCCCCCOC(=O)c1ccc2cc(C(=O)O*)ccc2c1 (repeat unit)
109.00 °C	*CCCCCCOc1ccc(-c2ccc(O*)c3ccccc23)c2ccccc12 (repeat unit)
17.90 °C	*CCCCCCOc1ccc(CCc2ccc(O*)cc2C)cc1 (repeat unit)
37.00 °C	*CCCCOC(=O)OCCCCCCOC(=O)OCCCCn1c(=O)c2cc3c(=O)n(*)c(=O)c3cc2c1=O (repeat unit)
66.00 °C	*CCCCOC(=O)c1ccc2cc(C(=O)O*)ccc2c1 (repeat unit)
53.00 °C	*CCCCOc1ccc(C(=O)OCCOC(=O)c2ccc(O*)cc2)cc1 (repeat unit)
36.00 °C	*CCCOC(=O)OCCCCCCOC(=O)OCCCn1c(=O)c2cc3c(=O)n(*)c(=O)c3cc2c1=O (repeat unit)
-23.50 °C	*CCOCCOCCOCCOCCOCCOC(=O)c1cccc(C(=O)O*)c1 (repeat unit)
40.00 °C	*CCOCCOCCOCCOCCOCCOCCOCCOCCOCCOC(=O)c1ccc(-c2ccc(-c3ccc(C(=O)O*)cc3)cc2)cc1 (repeat unit)
27.50 °C	*OC(=O)OCCCCCCOC(=O)OC1COC2C(*)COC12 (repeat unit)
10.00 °C	*OC1CCC(OC(=O)OCCCCCCOC(*)=O)CC1 (repeat unit)
46.00 °C	*OCCOC(=O)CCCC(=O)OCCOc1nc(-c2ccc(OCCCC)cc2)nc(*)c1-c1ccc(OC)cc1 (repeat unit)
34.00 °C	*OCCOC(=O)CCCCC(=O)OCCOc1nc(-c2ccc(OCCCC)cc2)nc(*)c1-c1ccc(OC)cc1 (repeat unit)
15.00 °C	*Oc1ccc(C(=O)OCCCCCCOC(=O)c2ccc(*)cc2)cc1 (repeat unit)
59.00 °C	*c1ccc(C(=O)OCCCCCCCCOc2ccc(/C=C3\CCC/C(=C\c4ccc(OCCCCCCCCOC(=O)c5ccc(-c6nnc(*)o6)cc5)cc4)C3=O)cc2)cc1 (repeat unit)
98.00 °C	*c1ccc(C(=O)OCCCCCCCCOc2ccc(/C=C3\CCCC/C(=C\c4ccc(OCCCCCCCCOC(=O)c5ccc(-c6nnc(*)o6)cc5)cc4)C3=O)cc2)cc1 (repeat unit)
